Measured values taken from article PMC4644816, “A Tetrameric Peptide Derived from Bovine Lactoferricin Exhibits Specific Cytotoxic Effects against Oral Squamous-Cell Carcinoma Cell Lines” (BioMed Research International, 2015).
Where a SMILES comes first, the peptide text is derived from it. Bridges are numbered along the chain shown (N, C = ends). Roman numbers before positions name the chains, in order. Where no end group is shown, it is not given here. [ ]: non-standard residue; d: D form. Ahx = NCCCCCC(=O)O

Assays:
CAL27 cells [1] = experiment: MTT cytotoxic assay, CAL27; type: cell-based
Method: (§1) The cell lines CAL27 (ATCC CRL-2095) and SCC15 (ATCC CRL-1623) and the human immortalized nontumorigenic epithelial esophagus cell line Het-1A (ATCC CRL-2692) were purchased from ATCC (Manassas, VA). CAL27 cells were cultured in Dulbecco's Modified Eagle's Medium (DMEM; Gibco) with 10% of fetal bovine serum (FBS; Gibco). […] Het-1A cells were cultured in Bronchial Epithelial Cell Growth Medium (BEBM) with the additives obtained from Lonza/Clonetics Corporation as a kit (CC-3170), without antibiotics. All cells were maintained at 37°C in a 5% CO2 humidified atmosphere. For Het-1A cells, the culture flasks were precoated with fibronectin (0.01 mg/mL), bovine collagen type I (0.03 mg/mL), and bovine serum albumin (0.01 mg/mL) dissolved in a culture medium and incubated for 24 h before culturing the cells. Cell stocks were prepared and thawed periodically and used in early subcultures (not exceeding 5–10 population doublings). Cell viability was estimated by Trypan blue exclusion staining and was always higher than 97%. Growth curves for each cell line were done using 3-(4,5-dimethylthiazol-2-yl)-2,5-diphenyltetrazolium bromide (MTT). […] SCC15 cells having a mesenchymal- or epithelia-like phenotype were separated by their differential adherence to plastic dish and characterized for the expression of specific markers (see Section 2.7). Cytotoxic activity was determined using the MTT assay. Briefly, cells were seeded in 96-well plates with a confluence of approximately 70% (8 × 10^3 CAL27-cells/well, 4 × 10^3 SCC15-cells/well, and 1.6 × 10^4 Het-1A-cells/well). After cell adherence, the culture medium was removed and peptides at different concentrations (between 100 and 6.25 μg/mL) and times (between 1 and 24 h or 48, 72, and 96 h) were added to the wells in the absence of FBS. Staurosporine (STA) was used as positive control (CAL27: 0.4 μg/mL, SCC15 0.6 μg/mL, and Het-1A 0.6 μg/mL). Phase-contrast photomicrographs of the treated cells were taken (Nikon, Eclipse TS500). After treatment, the medium was replaced with 100 μL of complete culture media with 10% of MTT (5 mg/mL), and cells were incubated for 4–6 h. Finally, 100 μL of DMSO was added in order to lyse the cells and release and solubilize the Formazan crystals. After 10 min of incubation at 37°C, absorbance was measured at 550 nm. […] In some experiments and after treatments, remaining viable cells were treated again with peptides. Cells were first treated with peptides for 24 h and washed carefully and then fresh culture medium was added and cells were further incubated for 72 h.

SCC15 cells = experiment: MTT cytotoxic assay, SCC15; type: cell-based
Method: as §1

Het-1A cells [2] = experiment: MTT cytotoxic assay, Het-1A; type: cell-based, human
Method: as §1

[3] = test system: normal human erythrocytes; type: cell-based
Method: 5 mL of heparinized peripheral blood was centrifuged at 1000 g for 7 min. The erythrocyte-rich fraction was resuspended in 10 mL of PBS and washed twice by centrifugation at 1000 g for 7 min. […] PBS was used as negative control, while Tween-20 (20% v/v) in PBS was used as positive controls. The 96-well plates were centrifuged, the supernatants were collected, and the absorbance was determined at 540 nm.

CAL27 cells [4] = experiment: Apoptotic/necrotic assay (Annexin V-FITC/PI flow cytometry), CAL27; details: CAL27, 1 h treatment
Method: (§2) 1 × 10^5 CAL27 and Het-1A cells were treated with peptides for 1 h at 37°C and then labeled with Annexin V-FITC/PI, using the Dead Cell Apoptosis Kit for flow cytometry (Thermo Fisher Scientific). As a control for necrosis, the cells were treated for 5 min with 0.2% T-X100.

Het-1A cells [5] = experiment: Apoptotic/necrotic assay (Annexin V-FITC/PI flow cytometry), Het-1A; details: 1 h treatment
Method: as §2

Molecule: CC[C@H](C)[C@H](NC(=O)[C@H](CO)NC(=O)[C@@H]1CCCN1C(=O)[C@H](C)NC(=O)CNC(=O)[C@H](CC(C)C)NC(=O)[C@H](CCCCN)NC(=O)[C@H](CCCCN)NC(=O)[C@H](CCSC)NC(=O)[C@H](CCCNC(=N)N)NC(=O)[C@H](Cc1c[nH]c2ccccc12)NC(=O)[C@H](CCC(N)=O)NC(=O)[C@H](Cc1c[nH]c2ccccc12)NC(=O)[C@H](CCCNC(=N)N)NC(=O)[C@H](CCCNC(=N)N)NC(=O)[C@H](CS)NC(=O)[C@H](CCCCN)NC(=O)[C@@H](N)Cc1ccccc1)C(=O)N[C@H](C(=O)N[C@@H](CS)C(=O)N[C@H](C(=O)N[C@@H](CCCNC(=N)N)C(=O)N[C@@H](CCCNC(=N)N)C(=O)N[C@@H](C)C(=O)N[C@@H](Cc1ccccc1)C(N)=O)C(C)C)[C@@H](C)O [LfcinB25, reference compound]
- cytotoxicity (CAL27 cells [1]; CAL27, 24 h, highest concentration tested 100 μg/mL (LfB 1.25 μM, LfcinB25 32 μM, LfcinB(20–25)4 22.25 μM), MTT): 64.4%
- cytotoxicity (SCC15 cells; SCC15, 24 h, highest concentration tested 100 μg/mL (LfB 1.25 μM, LfcinB25 32 μM, LfcinB(20–25)4 22.25 μM), MTT): 60%
- cytotoxicity (Het-1A cells [2]; Het-1A, 24 h, highest concentration tested 100 μg/mL (LfB 1.25 μM, LfcinB25 32 μM, LfcinB(20–25)4 22.25 μM), MTT): 60.5%

Molecule: N=C(N)NCCC[C@H](NC(=O)[C@H](Cc1c[nH]c2ccccc12)NC(=O)[C@H](CCC(N)=O)NC(=O)[C@H](Cc1c[nH]c2ccccc12)NC(=O)[C@H](CCCNC(=N)N)NC(=O)[C@@H](N)CCCNC(=N)N)C(=O)NCCCC[C@H](NC(=O)[C@H](CCCNC(=N)N)NC(=O)[C@H](Cc1c[nH]c2ccccc12)NC(=O)[C@H](CCC(N)=O)NC(=O)[C@H](Cc1c[nH]c2ccccc12)NC(=O)[C@H](CCCNC(=N)N)NC(=O)[C@@H](N)CCCNC(=N)N)C(=O)NCCCCCC(=O)N[C@@H](CSSC[C@H](NC(=O)CCCCCNC(=O)[C@H](CCCCNC(=O)[C@H](CCCNC(=N)N)NC(=O)[C@H](Cc1c[nH]c2ccccc12)NC(=O)[C@H](CCC(N)=O)NC(=O)[C@H](Cc1c[nH]c2ccccc12)NC(=O)[C@H](CCCNC(=N)N)NC(=O)[C@@H](N)CCCNC(=N)N)NC(=O)[C@H](CCCNC(=N)N)NC(=O)[C@H](Cc1c[nH]c2ccccc12)NC(=O)[C@H](CCC(N)=O)NC(=O)[C@H](Cc1c[nH]c2ccccc12)NC(=O)[C@H](CCCNC(=N)N)NC(=O)[C@@H](N)CCCNC(=N)N)C(N)=O)C(N)=O [LfcinB(20–25)4] (I: H-RRWQWRK[Ahx]C-NH2 / II: H-RRWQWRK[Ahx]C-NH2 / III: H-RRWQWR / IV: H-RRWQWR; amide I:7-III:C, II:7-IV:C; disulfide I:9-II:9; N-terminus and C-terminus assumed)
- cytotoxicity of a second addition of the peptide (in words) (CAL27 cells [1]): reduced to the same extent as the one obtained after the first treatment
- IC50 (CAL27 cells [1]; 1 h): 16 ± 1.36 µM
- IC50 (CAL27 cells [1]; 3 h): 17.4 ± 1.77 µM
- IC50 (CAL27 cells [1]; 24 h): 9.02 ± 1.38 µM
- IC50 (SCC15 cells; 1 h): 13.6 ± 1.06 µM
- IC50 (SCC15 cells; 3 h): 12.6 ± 1.06 µM
- IC50 (SCC15 cells; 24 h): 9.05 ± 1.07 µM
- IC50 (Het-1A cells [2]; 3 h): 18.8 ± 1.11 µM
- IC50 (Het-1A cells [2]; 24 h): 17.4 ± 1.11 µM
- concentration at which lysis of erythrocytes was shown [3]: 500 µg/mL
- apoptotic cell population (PI−/Annexin+), in words (CAL27 cells [4]): not detected
- apoptotic cell population (PI−/Annexin+), in words (Het-1A cells [5]): not detected

Molecule: RRWQWR-NH2 (C-terminus assumed) [LfcinB(20–25)]
- IC50 (CAL27 cells [1]; 1 h): > 101 µM
- IC50 (CAL27 cells [1]; 3 h): > 101 µM
- IC50 (CAL27 cells [1]; 24 h): > 101 µM
- IC50 (SCC15 cells; 1 h): > 101 µM
- IC50 (SCC15 cells; 3 h): > 101 µM
- IC50 (SCC15 cells; 24 h): > 101 µM
- IC50 (Het-1A cells [2]; 1 h): > 101 µM
- IC50 (Het-1A cells [2]; 3 h): > 101 µM
- IC50 (Het-1A cells [2]; 24 h): > 101 µM

Molecule: RWQWRWQWR-NH2 (C-terminus assumed) [LfcinB-Pal]
- IC50 (CAL27 cells [1]; 1 h): 22.8 ± 1.12 µM
- IC50 (CAL27 cells [1]; 3 h): 22.6 ± 1.02 µM
- IC50 (CAL27 cells [1]; 24 h): 21.5 ± 1.05 µM
- cytotoxic effect (in words) (CAL27 cells [1]; CAL27, 24 h, MTT, up to 100 μg/mL): clearly improved the cytotoxic effect
- IC50 (SCC15 cells; 1 h): > 67.3 µM
- IC50 (SCC15 cells; 3 h): > 67.3 µM
- IC50 (SCC15 cells; 24 h): > 67.3 µM
- cytotoxic effect (in words) (SCC15 cells; SCC15, 24 h, MTT, up to 100 μg/mL): only slightly
- IC50 (Het-1A cells [2]; 1 h): > 67.3 µM
- IC50 (Het-1A cells [2]; 3 h): 62.2 ± 1.56 µM
- IC50 (Het-1A cells [2]; 24 h): > 67.3 µM
- cytotoxic effect (in words) (Het-1A cells [2]; Het-1A, 24 h, MTT, at 40 μM): low
